Row | SMILES | melting point [°C]
1 | O=C(Nc1ccccc1)Nc1cc(C2CC2)n[nH]1 [Example 1, N-(3-cyclopropyl-1H-pyrazol-5-yl)-N′-phenylurea] | 162 to 164
2 | O=C(NCc1ccc(Cl)cc1Cl)Nc1cc(C2CC2)n[nH]1 [Example 2, N-(3-cyclopropyl-1H-pyrazol-5-yl)-N′-(2,4-dichlorobenzyl)urea] | 177 to 179
